Measurements reported in patent publication US20020115611A1, “Methods for screening GABA-modulatory compounds for specified pharmacological activities” (priority 1999, published 2002).
Where two headings read alike, the source gives them in different places.

How the values were obtained:
[1] = molecular target: GABAA receptors (Ro15-1788 / benzodiazepine site), rat cortex membranes; experiment: Ro15-1788 competition binding assay, rat cortex membranes; details: displacement of 3H Ro15-1788, rat cortex membranes
Description: Rat cortex membranes are prepared by homogenizing one or two previously frozen rat cortexes in 30 ml of 25 mM Tris Buffer, pH 7.4. The homogenate is centrifuged for 10 minutes at 500×g. The supernatant is then transferred to a clean centrifuge tube and the pellet discarded. The supernatant is spun for 20 minutes at 48,000×g. The supernatant from this spin is discarded and the pellet is resuspended in 30 ml of 25 mM Tris Buffer, pH 7.4 and centrifuged for an additional 10 minutes at 48,000×g. The supernatant from the final spin is discarded and the membrane pellet is resuspended in 100 mL Tris buffer per gram of cortex used.
The cortex membrane preparation is used to perform either percent inhibition or competition binding assays. In order to determine percent inhibition 300 μl of resuspended membranes are mixed with 200 μl ^3H labeled Ro15-1788 (final concentration 2.5 nM) and incubated for 1 hour on ice in the presence of 2 μl test compound in DMSO (final concentration 4 μM). Membranes are harvested onto untreated filtermats. The filtermats are dried and the ^3H Ro15-1788 signal is counted in a scintillation counter. Nonspecific binding is determined by displacement of ^3H Ro15-1788 with 10 μM Diazepam (RBI) or any other compound known to bind tightly at the benzodiazepine site.
Ki values are calculated according to the Cheng-Prussof equation.

rats [2] = experiment: step-down passive avoidance; type: in vivo; details: rat, IV; cognitive enhancement (Table X)
Description: (§1) A statistically significant effect in the spatial water maze, step-down passive avoidance, spontaneous locomotor activity, Porsolt swim test, or the elevated plus maze models is defined as p<0.05 using a valid parametric statistical test. Likewise, no statistically significant effect is defined in these models as p>0.05 using a valid parametric statistical test. No statistically significant effect for either of the seizure threshold models is defined as a decrease of less than 25% in the seizure threshold in the presence of a seizure inducing drug or a result that is not significant at the p<0.05 level.
In step-down passive avoidance a rat is placed on a platform located in the center of an electrified grid floor that is contained within a large (45 cm×45 cm×50 cm) white translucent Plexiglas® enclosure. The natural inclination of the rat is to step off the platform and investigate its surroundings. […] Each time the animal steps off the platform it receives a mild foot shock of 2 mAmps×6 sec. Following each shock the animal is removed from the box, placed in its cage for a one minute inter-trial interval, and then returned to the platform. The latency to step down on each trial, the number of trials taken to reach criterion during training and the retention latency are collected.
Testing is conducted approximately 24 hrs. after training. Drug-free animals are placed on the platform in the box in which they will have been trained and the latency to step down onto the grid floor is recorded for one trial as a measure of memory retention.

[3] = molecular target: α2β3γ2 GABAA subtype receptor (Homo sapiens, UniProt P18507+P47869); experiment: cell-based; details: for EC50 / oocyte electrophysiology maximum potentiation α2β3γ2: human subunits, GABA at EC10; for oocyte electrophysiology maximum potentiation α2β3γ2: negative = inverse agonism
Description: (§2) The in vitro efficacy and EC50 value of the test compound may be determined by measuring the chloride flux at the surface of a cell expressing the α,β, and γ subunits of the GABAA receptor in response to GABA by the two electrode voltage-clamp technique. While a variety of cells are suitable for use herein, the preferred cells used in this technique are Xenopus laevis oocytes that have been injected with non-polyadenylated CRNA coding for human derived α, βand γ GABAA subunits. The preferred form of the γ subunit is the normally expressed long form although an alternatively spliced form may be used.
(§3) Assays are carried out as described previously in White and Gurley, 1995 and White, et al., 1995. Xenopus laevis oocytes are enzymatically isolated and injected with non-polyadenylated cRNA for human derived α, β and γ GABAA subunits, respectively. In more preferred embodiments cRNA for the α1β2γ2, α2β3γ2, α3β3γ2, and α5β3γ2 subunit combinations are injected. Only one of these subunit combinations is injected per cell. For each subunit combination, sufficient message is injected to result in current amplitudes of >10 nA when 1 μM GABA is applied. Electrophysiological recordings are carried out using the two electrode voltage-clamp technique at a membrane holding potential of −70 mV.
(§4) Compounds are evaluated against a GABA concentration that evokes <10% (EC10) of the maximal evocable GABA current. Each oocyte is exposed to increasing concentrations of compound in order to evaluate a concentration/effect relationship.
(§5) Specificity of a compound for the Ro15-1788 site is determined following completion of the concentration/effect curve. After washing the oocyte sufficiently to remove previously applied compound, the oocyte is exposed to GABA and 1 μM Ro15-1788, followed by exposure to GABA, 1 μM Ro15-1788, and compound. Percent change due to addition of compound is calculated as described above. Any percent change observed in the presence of Ro15-1788 is subtracted from the percent changes in current amplitude observed in the absence of 1 μM Ro15-1788. These net values are used for the calculation of average activity and EC50 values.
(§6) To evaluate average activity and EC50 values, the concentration/effect data are averaged across cells and fit to the logistic equation. Average values are reported as mean±standard error.

[4] = molecular target: α1β2γ2 GABAA subtype receptor (Homo sapiens, UniProt P14867+P18507); experiment: cell-based; details: for oocyte electrophysiology maximum potentiation α1β2γ2 / EC50: human subunits, GABA at EC10; for oocyte electrophysiology maximum potentiation α1β2γ2: negative = inverse agonism
Description: as §2, §3, §4, §5, §6

[5] = molecular target: α5β3γ2 GABAA subtype receptor (Homo sapiens, UniProt P18507+P31644); experiment: cell-based; details: human subunits, GABA at EC10
Description: as §2, §3, §4, §5, §6

[6] = molecular target: α3β3γ2 GABAA subtype receptor (Homo sapiens, UniProt P18507+P34903); experiment: cell-based; details: human subunits, GABA at EC10
Description: as §2, §3, §4, §5, §6

rats [7] = experiment: bicuculline seizure threshold test; type: in vivo; details: rat; proconvulsant activity; NS = no statistically significant effect versus vehicle
Description: as §1
This test provides a measure of whether the test compound is proconvulsant by measuring whether the test compound produces any change in the dose of the seizure inducing drug, bicuculline, needed to elicit seizures in rats. […]
Adult male Sprague-Dawley rats (175-300 g) are weighed and placed in a rat restrainer. […] Patency of catheter placement is tested by backflow of venous blood and ready infusion of less than 2 ml of saline solution. […]
Test compound is infused 5 minutes prior to the start of bicuculline infusion. […] The time elapsed from the start of bicuculline infusion to first myoclonic jerk (first head/neck twitch), the initiation of full myoclonus (writhing), and final forelimb extension is all recorded using a digital stopwatch. […]

rats [8] = experiment: spontaneous locomotor activity; type: in vivo; details: rat, IV; sedation as side effect (Tables V and IX); NS = no statistically significant effect over dose range
Description: as §1
Spontaneous locomotor activity can be measured to determine sedative effects of compounds. Locomotor activity is measured in eight computerized Digiscan-16 Animal Activity Monitors (Omnitech Electronics, Columbus, Ohio) equipped with 48 infrared photocell emitters and detectors. Each box is constructed of Plexiglas sides and floor. Horizontal activity is detected by a set of horizontal sensors on the front to back walls and a second group of sensors on the side to side walls located 5 cm above the cage floor. Vertical activity is detected by a third set of sensors on the side to side walls located 13.5 cm above the cage floor. The rats are tested in the presence of white noise (62 dB) and red light (60 watt). […]

rats [9] = experiment: Porsolt forced swim test; type: in vivo; details: rat, administered IV; antidepressant effect
Description: as §1
The effects measured in this model have been correlated to antidepressant efficacy for drugs. The paradigm of this model is that an effective antidepressant compound will cause a rat to make greater attempts to escape a water-filled cylinder than a rat given vehicle only.
Animals used in this study were non-naive male Sprague Dawley Rats (SASCO, St. Louis) weighing between 280-350 grams. The test apparatus consists of 6 clear Plexiglas cylinders 40 cm high×19 cm wide. Cylinders are filled to 18 cm with 25° C. water. Each rat is placed in a cylinder for a 15 minute training session. Following either subchronic or acute dosing of either vehicle (0.5% methylcellulose) of compound, animals are brought back 24 hours later for a 5 minute test session. These test session is videotaped for later scoring.
Subchronic dosing consists of administering drug three times in the 24-hour period between training and testing. The drug is administered 24 hrs., 5 hrs., and 1 hr. prior to the test session. Acute dosing consists of administering the drug once, 1 hour prior to the test session. Scoring is done using a time-sampling computer program written in Visual Basic and run in DOS. […] These sampling score are then converted into percentages of the test session.

[10] = oocyte electrophysiology EC50 α2β3γ2, Xenopus laevis oocytes
[11] = oocyte electrophysiology EC50 α1β2γ2, Xenopus laevis oocytes
[12] = oocyte electrophysiology EC50 α5β3γ2, Xenopus laevis oocytes
[13] = oocyte electrophysiology EC50 α3β3γ2, Xenopus laevis oocytes
[14] = Xenopus laevis oocytes, read-out: oocyte electrophysiology EC50 α2β3γ2
[15] = Xenopus laevis oocytes, read-out: oocyte electrophysiology EC50 α1β2γ2
[16] = Xenopus laevis oocytes, read-out: oocyte electrophysiology EC50 α3β3γ2
[17] = Xenopus laevis oocytes, read-out: oocyte electrophysiology EC50 α5β3γ2

Sequence of α1β2γ2 GABAA subtype receptor (P14867 28-456): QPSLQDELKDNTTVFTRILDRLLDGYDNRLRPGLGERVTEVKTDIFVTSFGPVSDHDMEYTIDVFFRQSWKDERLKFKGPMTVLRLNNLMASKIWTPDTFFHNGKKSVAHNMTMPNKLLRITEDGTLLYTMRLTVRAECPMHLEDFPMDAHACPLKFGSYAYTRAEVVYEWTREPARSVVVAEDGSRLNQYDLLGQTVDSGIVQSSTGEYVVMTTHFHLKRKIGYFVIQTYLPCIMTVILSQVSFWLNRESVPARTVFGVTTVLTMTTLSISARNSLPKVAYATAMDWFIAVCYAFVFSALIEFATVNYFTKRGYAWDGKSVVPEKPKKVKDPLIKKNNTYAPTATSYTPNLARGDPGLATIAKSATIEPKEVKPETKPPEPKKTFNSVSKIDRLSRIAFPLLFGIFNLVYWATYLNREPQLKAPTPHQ
Sequence of α1β2γ2 GABAA subtype receptor (P47870 25-512 partner limits assumed): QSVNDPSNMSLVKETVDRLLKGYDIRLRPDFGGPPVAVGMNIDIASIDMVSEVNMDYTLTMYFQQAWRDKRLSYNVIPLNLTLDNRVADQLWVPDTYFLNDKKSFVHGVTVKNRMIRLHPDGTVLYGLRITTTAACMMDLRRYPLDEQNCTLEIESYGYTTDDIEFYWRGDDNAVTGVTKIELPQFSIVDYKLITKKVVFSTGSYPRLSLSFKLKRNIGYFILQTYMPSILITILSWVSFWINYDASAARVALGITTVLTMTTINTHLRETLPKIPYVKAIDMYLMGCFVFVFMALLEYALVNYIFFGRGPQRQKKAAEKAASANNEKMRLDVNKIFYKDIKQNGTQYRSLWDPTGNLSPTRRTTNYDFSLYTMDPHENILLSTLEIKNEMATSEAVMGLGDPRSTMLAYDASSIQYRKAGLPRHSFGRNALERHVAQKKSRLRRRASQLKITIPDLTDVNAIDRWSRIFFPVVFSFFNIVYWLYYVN
Sequence of α1β2γ2 GABAA subtype receptor (P18507 40-475): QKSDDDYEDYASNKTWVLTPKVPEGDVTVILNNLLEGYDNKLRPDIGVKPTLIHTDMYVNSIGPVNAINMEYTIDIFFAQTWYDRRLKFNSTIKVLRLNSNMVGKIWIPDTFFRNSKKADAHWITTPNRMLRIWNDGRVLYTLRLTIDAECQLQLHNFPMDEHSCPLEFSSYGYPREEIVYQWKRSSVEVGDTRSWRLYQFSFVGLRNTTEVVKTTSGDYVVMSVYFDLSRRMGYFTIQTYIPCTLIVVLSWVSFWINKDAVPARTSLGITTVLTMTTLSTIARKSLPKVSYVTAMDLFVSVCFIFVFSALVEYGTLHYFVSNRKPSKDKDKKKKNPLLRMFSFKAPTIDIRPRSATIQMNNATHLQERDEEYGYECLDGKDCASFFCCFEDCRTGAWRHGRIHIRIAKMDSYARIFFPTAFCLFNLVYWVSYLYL
Sequence of α2β3γ2 GABAA subtype receptor (P47869 29-451): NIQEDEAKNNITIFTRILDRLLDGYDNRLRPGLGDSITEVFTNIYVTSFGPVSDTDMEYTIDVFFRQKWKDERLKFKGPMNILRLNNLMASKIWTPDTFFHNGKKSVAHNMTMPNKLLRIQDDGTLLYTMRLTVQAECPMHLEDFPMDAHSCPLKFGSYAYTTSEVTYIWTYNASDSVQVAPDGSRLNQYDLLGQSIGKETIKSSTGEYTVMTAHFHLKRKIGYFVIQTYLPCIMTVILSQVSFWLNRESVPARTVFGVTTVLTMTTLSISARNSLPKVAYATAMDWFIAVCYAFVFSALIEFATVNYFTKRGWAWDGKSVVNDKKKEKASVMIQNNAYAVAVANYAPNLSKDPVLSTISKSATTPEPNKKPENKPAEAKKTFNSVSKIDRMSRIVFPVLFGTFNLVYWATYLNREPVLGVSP
Sequence of α2β3γ2 GABAA subtype receptor (P28472 26-473 partner): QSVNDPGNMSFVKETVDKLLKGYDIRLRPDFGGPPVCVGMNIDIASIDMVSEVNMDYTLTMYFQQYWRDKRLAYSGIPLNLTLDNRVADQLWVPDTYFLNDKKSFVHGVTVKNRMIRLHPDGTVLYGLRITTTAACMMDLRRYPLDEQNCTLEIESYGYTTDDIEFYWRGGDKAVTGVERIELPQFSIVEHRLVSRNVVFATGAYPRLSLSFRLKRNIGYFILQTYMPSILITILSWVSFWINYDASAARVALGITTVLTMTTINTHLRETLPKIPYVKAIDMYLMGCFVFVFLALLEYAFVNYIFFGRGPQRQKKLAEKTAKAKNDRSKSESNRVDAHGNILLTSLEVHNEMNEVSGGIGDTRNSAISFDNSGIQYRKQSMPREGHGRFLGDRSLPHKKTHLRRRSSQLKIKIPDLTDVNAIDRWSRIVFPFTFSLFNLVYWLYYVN
Sequence of α2β3γ2 GABAA subtype receptor (P18507 40-475): as the sequence (P18507 40-475) above
Sequence of α5β3γ2 GABAA subtype receptor (P31644 32-462): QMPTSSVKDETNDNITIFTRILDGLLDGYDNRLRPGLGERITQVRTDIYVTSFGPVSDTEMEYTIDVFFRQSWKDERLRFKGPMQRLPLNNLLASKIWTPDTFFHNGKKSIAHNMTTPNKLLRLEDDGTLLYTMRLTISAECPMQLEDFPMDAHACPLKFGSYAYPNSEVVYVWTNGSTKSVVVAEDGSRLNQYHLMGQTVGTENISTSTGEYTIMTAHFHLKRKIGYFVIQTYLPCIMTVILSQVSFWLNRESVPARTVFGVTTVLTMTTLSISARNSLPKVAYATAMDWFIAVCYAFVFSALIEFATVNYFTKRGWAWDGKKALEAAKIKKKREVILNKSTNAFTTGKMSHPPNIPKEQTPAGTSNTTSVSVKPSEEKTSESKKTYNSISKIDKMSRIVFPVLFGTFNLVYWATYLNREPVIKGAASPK
Sequence of α5β3γ2 GABAA subtype receptor (P28472 26-473 partner): as the sequence (P28472 26-473 partner) above
Sequence of α5β3γ2 GABAA subtype receptor (P18507 40-475): as the sequence (P18507 40-475) above
Sequence of α3β3γ2 GABAA subtype receptor (P34903 29-492): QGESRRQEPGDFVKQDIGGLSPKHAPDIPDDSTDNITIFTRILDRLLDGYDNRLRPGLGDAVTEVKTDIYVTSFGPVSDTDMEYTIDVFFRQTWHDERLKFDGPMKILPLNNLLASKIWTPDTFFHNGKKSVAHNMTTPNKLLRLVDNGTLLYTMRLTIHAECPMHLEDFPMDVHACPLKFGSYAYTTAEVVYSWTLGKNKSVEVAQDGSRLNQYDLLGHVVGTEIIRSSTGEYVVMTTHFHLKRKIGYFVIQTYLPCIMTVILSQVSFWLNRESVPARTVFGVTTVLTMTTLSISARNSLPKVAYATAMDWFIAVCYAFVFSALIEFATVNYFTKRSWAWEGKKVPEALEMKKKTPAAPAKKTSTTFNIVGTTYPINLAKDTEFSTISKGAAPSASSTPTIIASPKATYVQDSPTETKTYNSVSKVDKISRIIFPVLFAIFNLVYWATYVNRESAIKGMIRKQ
Sequence of α3β3γ2 GABAA subtype receptor (P28472 26-473 partner): as the sequence (P28472 26-473 partner) above
Sequence of α3β3γ2 GABAA subtype receptor (P18507 40-475): as the sequence (P18507 40-475) above

SMILES | Ki [1] | cognitive model: step-down passive avoidance, minimal efficacious dose (rats [2]) | EC50 [3, 10] | oocyte electrophysiology maximum potentiation α1β2γ2 ([4]; Xenopus laevis oocytes) | EC50 [4, 11] | oocyte electrophysiology maximum potentiation α5β3γ2 ([5]; Xenopus laevis oocytes, negative = inverse agonism) | EC50 [5, 12] | EC50 [6, 13] | bicuculline seizure threshold, mean percent decrease in seizure threshold over the dose range studied (rats [7]) | spontaneous locomotor activity, minimal efficacious dose (rats [8]) | Porsolt swim test, minimal efficacious dose (rats [9]) | oocyte electrophysiology maximum potentiation α2β3γ2 ([3]; Xenopus laevis oocytes) | EC50 [3, 14] | EC50 [4, 15] | EC50 [6, 16] | Emax ([3]; read-out: oocyte electrophysiology maximum potentiation α2β3γ2) | Emax ([4]; read-out: oocyte electrophysiology maximum potentiation α1β2γ2) | EC50 [5, 17]
O=C1C2C=Nc3ccccc3C2=NN1c1ccccc1 (stereo not drawn) [CGS 8216, reference compound] | 0.2 nM | 0.06 mg/kg | 2 nM | −26% | 0.7 nM | −39% | 1 nM | 2 nM | 50% | – | – | – | – | – | – | – | – | –
CC(C)(C)OC(=O)c1ncn2c1C1CCCN1C(=O)c1c(Br)cccc1-2 (stereo not drawn) [Ro16-6028, reference compound] | – | – | – | – | – | – | – | – | – | 0.06 mg/kg | 1 mg/kg | – | – | – | – | – | – | –
CCOc1ccc(-n2c(=O)c3c[nH]c4ccccc4n-3c2=O)cc1 [compound 1] | – | – | 20 nM | 12% | 6 nM | – | – | 35 nM | – | – | 20 mg/kg | 71% | 114 nM | 159 nM | 144 nM | – | – | –
CCOc1ccc(NC(=O)c2c[nH]c3c2C(=O)CCC3)cc1 [compound 3] | – | – | 12 nM | – | 33 nM | – | 36 nM | 23 nM | – | 4 mg/kg | 20 mg/kg | – | 108 nM | 107 nM | 133 nM | 52% | 26% | 186 nM
CNCc1ccc(NC(=O)c2c[nH]c3c2C(=O)CCCC3)cc1 [compound 4] | – | – | 19 nM | 23% | 48 nM | – | – | 51 nM | – | – | 20 mg/kg | 66% | 108 nM | 107 nM | 133 nM | – | – | 186 nM
